Our source for the EC50 values is patent publication US20250042861A1, “TETRAHYDROPYRIDAZINES, COMPOSITIONS COMPRISING THEM AND USES THEREOF” (Novo Nordisk A/S, priority 2021, published 2025).

Each structure is given as a SMILES string.

The target of assay [1] is T1, human CB1 receptor (Homo sapiens, UniProt P21554).
T1 construct: expressed in transfected cells; host or cells: HEK293
Nature of the assay: bioSensAll β-arrestin plasma membrane (PM) translocation BRET biosensor (+GRK2) assay in transfected HEK293 cells, inhibition of CP-55,940 response. The note with it: HEK293 cells transfected with hCB1 and β-arrestin PM translocation biosensor (+GRK2), test compound then EC75 of CP-55,940 (100 nM), overnight incubation, read-out: CB1 wt βarr2 EC50. The format is cell-based. The method, then: (§1) Using polyethylenimine (PEI) transfection agent, HEK293 cells were transfected in suspension with the human CB1 or CB1 b receptor and one of the following bioSensAll® assays: GAPL-Gi2, or β-arrestin plasma membrane (PM) translocation biosensor (+GRK2). Cells were directly seeded in 96-well plates immediately following transfection.
(§2) Cells were incubated with coelenterazine (luciferase substrate) and different test compounds prior to the measurement of BRET signals.
(§3) Used in this project are i) Ga plasma membrane (GAPL) biosensors and the ii) β-arrestin plasma membrane translocation biosensor. • i) GAPL sensors are used to monitor the activation of heterotrimeric G proteins at the plasma membrane upon receptor stimulation. Specifically, these multimolecular BRET sensors detect the plasma membrane recruitment of proteins that interact with active Ga subunits in a G protein family-selective manner. G protein activation following receptor stimulation generally leads to an increase in the BRET signal. • ii) The multimolecular β-arrestin membrane recruitment biosensors allow for real-time spatio-temporal monitoring of β-arrestin 1 and β-arrestin 2 following GPCR activation. Specifically, these β-arrestin sensors were designed to detect the recruitment of proteins to the plasma membrane β-arrestin PM) with localization to compartment resulting in an increased BRET signal. c) Cell Culture Conditions HEK293 cells were maintained in Dulbecco's Modified Eagle Medium (DMEM) (Wisent; cat #319-030-CL: without sodium pyruvate, with 4.5 g/L glucose, without L-glutamine) supplemented with 1% penicillin-streptomycin (Wisent; cat #450-201-EL) and 2 or 10% fetal bovine serum (Wisent cat #090150).
(§4) HEK293 cells were co-transfected with hCB1 or hCB1b and one of the above-listed bioSensAll® assays. For each transfection condition: • the total amount of transfected DNA was kept constant at 1 μg per mL of cell culture to be transfected; whenever necessary, salmon sperm DNA (Invitrogen, cat #15632011) was used as ‘carrier’ DNA to supplement plasmid DNA (i.e., biosensor and receptor); • the PEI (polyethylenimine 25 kDa linear, PolyScience, cat #23966) to DNA ratio (ug:ug) was fixed at 3:1. Transfections were Carried Out as Follows: • DNA and PEI were first diluted separately in 150 mM NaCl. The volume of the diluent in each tube corresponds to 5% of the cell culture volume to be transfected. • Once DNA and PEI were diluted, the PEI-containing solution was added to the DNA solution and the DNA/PEI mixture immediately vortexed for 5 seconds. • The DNA/PEI mixture was incubated for at least 20 minutes at room temperature to allow for the formation of DNA/PEI complexes. • During the incubation, HEK293 cells were detached, counted and re-suspended in culture medium (composition specified above). • At the end of the incubation period, the DNA/PEI mixture was added to the cells. • Cells were finally distributed in 96-well plates (White Opaque 96-well/Microplates, Greiner, cat #655083 or CulturPlate-96, White Opaque 96-well Microplate, PerkinElmer, cat #6005688) at a density of 30 000 cells per well.
(§5) • Using 450-Select TS Biotek plate washer, culture medium was aspirated and replaced with 100 μl of Hank's Balanced Salt Solution buffer (HBSS) (Wisent, cat #319-067CL: without red phenol; with sodium bicarbonate, with calcium and magnesium, with HEPES) per well. This process was performed a total of two times (i.e., 2 washes). • After the washing step, the HP D300 digital dispenser (Tecan) was used to inject increasing doses (12) of test compounds (ranging from 0-600 nM) to wells. […]
A general note: Bioluminescence resonance energy transfer reports proximity on the nanometre scale.

Assay [2] deals with T1, human CB1 receptor. The assay can be described thus: bioSensAll GAPL-Gi2 BRET biosensor assay in transfected HEK293 cells, inhibition of CP-55,940 response. Type of assay: cell-based. The conditions noted are these: HEK293 cells transfected with hCB1 and GAPL-Gi2 biosensor, test compound then EC75 of CP-55,940 (0.1 nM), overnight incubation, read-out: CB1 wt Gi2 EC50. On the procedure:
as §1, §2, §3, §4, §5

T1 sequence (P21554 whole entry): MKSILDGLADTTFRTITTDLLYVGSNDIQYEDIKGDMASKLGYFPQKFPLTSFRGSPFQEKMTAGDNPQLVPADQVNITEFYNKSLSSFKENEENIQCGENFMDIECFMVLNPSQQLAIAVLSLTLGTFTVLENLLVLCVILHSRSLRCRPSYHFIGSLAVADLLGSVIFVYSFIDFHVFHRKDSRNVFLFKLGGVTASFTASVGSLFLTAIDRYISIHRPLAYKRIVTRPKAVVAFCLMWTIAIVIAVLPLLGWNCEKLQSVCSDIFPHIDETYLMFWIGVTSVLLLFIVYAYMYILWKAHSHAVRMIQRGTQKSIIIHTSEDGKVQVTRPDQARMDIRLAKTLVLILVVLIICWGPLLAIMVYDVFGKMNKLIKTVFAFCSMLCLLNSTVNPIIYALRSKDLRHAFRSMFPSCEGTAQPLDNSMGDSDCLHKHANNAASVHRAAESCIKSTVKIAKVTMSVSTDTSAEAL

What is called EC50 is the concentration that produces a half-maximal response. For the compound `CC(=O)NC(=N)/N=C(/NS(=O)(=O)c1ccc(C(F)(F)F)cn1)N1CCC(c2ccccc2)C(c2ccc(Cl)cc2)=N1` (single isomer, unassigned) [Compound 8 Isomer 2, N-[(NE)-N-[[6-(4-chlorophenyl)-5-phenyl-4,5-dihydro-3H-pyridazin-2-yl]-[[5-(trifluoromethyl)-2-pyridyl]sulfonylamino]methylene]carbamimidoyl]acetamide], the figures for the concentration giving a half-maximal response (EC50) on human CB1 receptor [1] and at human CB1 receptor [2] were 8.5 nM and 1.9 nM, respectively.
